In patent publication US20260176289A1, “SMALL MOLECULE INHIBITORS OF KRAS PROTEINS” (Merck Sharp & Dohme LLC, priority 2022, published 2026):
Where two headings read alike, the source gives them in different places.

What was measured:
[1] = target: KRAS-WT (Homo sapiens, UniProt P01116); assay: SOS-catalyzed nucleotide exchange assay (Procedure A, TR-FRET), KRAS-WT; assay type: biochemical; conditions: nucleotide exchange, read-out: KRAS WT GNE IC50
How it was run: (§1)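 Compounds (10-point, 3-fold) were preincubated 60 min at room temperature with a biotinylated RAS/Bodipy-GDP/Tb-streptavidin TR-FRET complex. Exchange was started with human SOS plus 3 mM GTP. RAS/SOS: G12C 3/40 nM, WT 1/40 nM, NRAS 1.25/40 nM (60 min); G12V 1.25/160 nM (90 min). The 520/495 ratio was fit four-parameter.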

[2] = target: KRAS-G12C (C51S/C80L/C118S) (Homo sapiens, UniProt P01116, C118S/C51S/C80L/G12C); assay: SOS-catalyzed nucleotide exchange assay (Procedure A, TR-FRET), KRAS-G12C; assay type: biochemical; conditions: nucleotide exchange, Procedure A; read-out: KRAS G12C GNE IC50
Sequence of KRAS-G12C (C51S/C80L/C118S) (P01116 with tags, fused parts or gaps isoform P01116-2 G12C/C51S/C80L/C118S): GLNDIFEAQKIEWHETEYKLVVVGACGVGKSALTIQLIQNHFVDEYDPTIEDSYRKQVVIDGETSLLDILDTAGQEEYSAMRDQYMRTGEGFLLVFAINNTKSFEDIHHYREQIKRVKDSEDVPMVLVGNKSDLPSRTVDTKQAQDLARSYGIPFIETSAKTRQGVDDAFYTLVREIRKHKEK
How it was run: as §1

[3] = target: KRAS-G12D (Homo sapiens, UniProt P01116, G12D); assay: SOS-catalyzed nucleotide exchange assay (Procedure A, TR-FRET), KRAS-G12D; assay type: biochemical; conditions: nucleotide exchange, read-out: KRAS G12D GNE IC50
Sequence of KRAS-G12D (P01116 with tags, fused parts or gaps isoform P01116-2 G12D): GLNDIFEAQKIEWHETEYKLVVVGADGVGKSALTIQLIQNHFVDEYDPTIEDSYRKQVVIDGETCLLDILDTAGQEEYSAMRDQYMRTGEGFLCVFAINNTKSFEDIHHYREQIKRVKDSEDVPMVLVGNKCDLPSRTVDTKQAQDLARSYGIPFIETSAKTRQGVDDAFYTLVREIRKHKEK
How it was run: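 Signal ratio (520/495 nm, excitation 340 nm) reports Bodipy-GDP retention on biotinylated RAS after SOS-catalyzed exchange with 3 mM GTP. SOS was 40 nM, except 160 nM for G12V. Room-temperature exchange lasted 60 min (90 min for G12V), following a 60 min compound preincubation.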

[4] = target: KRAS-G12V (Homo sapiens, UniProt P01116, G12V); assay: SOS-catalyzed nucleotide exchange assay (Procedure A, TR-FRET), KRAS-G12V; assay type: biochemical; conditions: nucleotide exchange, read-out: KRAS G12V GNE IC50
Sequence of KRAS-G12V (P01116 with tags, fused parts or gaps isoform P01116-2 G12V): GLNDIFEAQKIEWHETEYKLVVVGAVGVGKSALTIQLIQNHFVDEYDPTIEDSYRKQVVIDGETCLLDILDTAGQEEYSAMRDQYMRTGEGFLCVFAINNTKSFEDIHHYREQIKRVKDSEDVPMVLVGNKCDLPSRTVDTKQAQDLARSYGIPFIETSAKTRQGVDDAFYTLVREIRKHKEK
How it was run: as §1

[5] = target: KRAS-G13D (Homo sapiens, UniProt P01116, G13D); assay: SOS-catalyzed nucleotide exchange assay (Procedure A, TR-FRET), KRAS-G13D; assay type: biochemical; conditions: nucleotide exchange, Procedure A; read-out: KRAS G13D GNE IC50
Sequence of KRAS-G13D (P01116 with tags, fused parts or gaps isoform P01116-2 G13D): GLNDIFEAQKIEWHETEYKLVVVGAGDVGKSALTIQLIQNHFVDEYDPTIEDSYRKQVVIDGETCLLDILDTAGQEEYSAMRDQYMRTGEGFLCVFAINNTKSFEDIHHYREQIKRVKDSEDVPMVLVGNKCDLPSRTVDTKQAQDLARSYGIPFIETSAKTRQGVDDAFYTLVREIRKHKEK

[6] = tested on: MKN-1 cells; assay: Cellular phospho-ERK assay, MKN-1 cells (amplified wild-type KRAS); assay type: cell-based; conditions: Homo sapiens, read-out: MKN1 pERK IC50
How it was run: (§2)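 Cells seeded at 10,000-15,000 per well were incubated overnight, then exposed to compound for 2 hours at 37 °C in a 10-point, 1:3 series topping at 30 μM final. Lysates were assayed by Alpha SureFire Ultra multiplex for p-ERK and total ERK; IC50 came from a 4-parameter logistic fit of their ratio.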

[7] = tested on: AsPC-1 cells; assay: Cellular phospho-ERK assay, AsPC-1 cells (homozygous KRAS-G12D); assay type: cell-based; conditions: Homo sapiens, ASPC1, 2 h, read-out: AsPC1 pERK IC50
How it was run: as §2

[8] = tested on: SW620 cells; assay: Cellular phospho-ERK assay, SW620 cells (homozygous KRAS-G12V); assay type: cell-based; conditions: Homo sapiens, read-out: SW620 pERK IC50
How it was run: as §2

[9] = amplified wild-type KRAS, 2 hours
[10] = SW-620, 2 hours compound incubation

Sequence of KRAS-WT (P01116 with tags, fused parts or gaps isoform P01116-2): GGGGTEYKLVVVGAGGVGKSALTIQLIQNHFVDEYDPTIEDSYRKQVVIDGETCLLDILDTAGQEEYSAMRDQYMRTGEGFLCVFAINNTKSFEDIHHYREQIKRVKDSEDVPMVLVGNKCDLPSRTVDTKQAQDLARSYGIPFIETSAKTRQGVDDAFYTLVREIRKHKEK

| IC50 ([6]; 2 hours compound incubation) | IC50 ([7]; 2 hours compound incubation) | IC50 [8, 10] | SMILES | IC50 [1] | IC50 [2] | IC50 [3] | IC50 [4] | IC50 [5] | IC50 [6, 9] | IC50 ([7]; KRAS-G12D, 2 hours) | IC50 ([8]; SW-620, KRAS-G12V, 2 hours) |
| --- | --- | --- | --- | --- | --- | --- | --- | --- | --- | --- | --- |
| – | – | – | Cc1cc2[nH]ncc2c(-c2nccc3c2sc2nc(OC[C@@]45CCCN4C[C@H](F)C5)nc(N4CCOC[C@@](C)(O)C4)c23)c1C12CC(C1)C2 [Ex-43, (6S)-4-(8-(5-(bicyclo[1.1.1]pentan-1 yl)-6-methy1-1H-indazol-4-yl)-2-(((2R,7aS)-2-fluorotetrahydro-1H-pyrrolizin-7a(5H)-yl)methoxy)pyrido[4′,3′:4,5]thi-eno[2,3-d]pyrimidin-4-yl)-6-methyl-1,4-oxazepan-6-ol] | 44.4 nM | 24.3 nM | 13.9 nM | 26.8 nM | 17.5 nM | 145 nM | 130 nM | 62 nM |
| – | – | – | C[C@@]1(O)COCCN(c2nc(OC[C@@]34CCCN3C[C@H](F)C4)nc3sc4c(-c5c(C6(F)CC6)c(Cl)cc6[nH]ncc56)nccc4c23)C1 [Ex-52, (6S)-4-(8-(6-chloro-5-(1-fluorocyclopropyl)-1H-indazol-4-yl)-2-(((2R,7aS)-2-fluorotetrahydro-1H-pyrrolizin-7a(5H)-yl)methoxy)pyrido[4′,3′-4,5]thi-eno[2,3-d]pyrimidin-4-yl)-6-methyl-1,4-oxazepan-6-ol] | 11.9 nM | 30.1 nM | 4.05 nM | 12.9 nM | 9.02 nM | 48.6 nM | 68.7 nM | 37.3 nM |
| – | – | – | C[C@@]1(O)COCCN(c2nc(OC[C@@]34CCCN3C/C(=C\F)C4)nc3sc4c(-c5c(C6(F)CC6)c(C(F)(F)F)cc6[nH]ncc56)nccc4c23)C1 [Ex-56, (6S)-4-(8-(5-(1-fluorocyclopropyl)-6-(trifluoromethyl)-1H-indazol-4-yl)-2-(((S,Z)-2-(fluoromethylene)tetrahy-dro-1H-pyrrolizin-7a(5H)-yl)methoxy)pyrido[4′,3′:4,5]thi-eno[2,3-d]pyrimidin-4-yl)-6-methyl-1,4-oxazepan-6-ol] | 26.5 nM | 128 nM | 9.15 nM | 32.6 nM | 22.6 nM | 45.6 nM | 48.9 nM | 57.5 nM |
| – | – | – | C=C(F)c1c(C(F)(F)F)cc2[nH]ncc2c1-c1nccc2c1sc1nc(OC[C@@]34CCCN3C[C@H](F)C4)nc(N3CCOC[C@@](C)(O)C3)c12 [Ex-58, (6S)-4-(2-(((2R,7aS)-2-fluorotetrahydro-1H-pyrrolizin-7a(5H)-yl)methoxy)-8-(5-(1-fluorovinyl)-6-(trifluoromethyl)-1H-indazol-4-yl)pyrido[4′,3′:4,5]thieno [2,3-d]pyrimidin-4-yl)-6-methyl-1,4-oxazepan-6-ol] | 17.6 nM | 16.5 nM | 5.41 nM | 13.5 nM | 10.4 nM | 35.5 nM | 57.1 nM | 36.2 nM |
| – | – | – | C=C(C)c1c(C(F)(F)F)cc2[nH]ncc2c1-c1nccc2c1sc1nc(OCC34CCCN3CC(F)C4)nc(N3CCOCC(C)(O)C3)c12 [Ex-60, (6S)-4-(2-(((2R,7aS)-2-fluorotetrahydro-1H-pyrrolizin-7a(5H)-yl)methoxy)-8-(5-(prop-1-en-2-yl)-6-(trifluoromethyl)-1H-indazol-4-yl)pyrido[4′,3′:4,5]thieno [2,3-d]pyrimidin-4-y])-6-methyl-1,4-oxazepan-6-ol] | 29 nM | 22.4 nM | 9.46 nM | 18.6 nM | 15.8 nM | 44.5 nM | 99.5 nM | 41.9 nM |
| – | – | – | C[C@@]1(O)COCCN(c2nc(OC[C@@]34CCCN3C[C@H](F)C4)nc3sc4c(-c5c(C6CCC6)c(Cl)cc6[nH]ncc56)nccc4c23)C1 [Ex-69, (6S)-4-(8-(6-chloro-5-cyclobutyl-1H-indazol-4-yl)-2-(((2R,7aS)-2-fluorotetrahydro-1H-pyrrolizin-7a(5H)-yl)methoxy)pyrido[4′,3′:4,5]thi-eno[2,3-d]pyrimidin-4-yl)-6-methyl-1,4-oxazepan-6-ol] | 28.6 nM | 20.4 nM | 6.79 nM | 10.2 nM | 12.5 nM | 52.7 nM | 68.5 nM | 51.9 nM |
| – | – | – | C[C@@]1(O)COCCN(c2nc(OC[C@@]34CCCN3C[C@H](F)C4)nc3sc4c(-c5c(C6CC6)c(C(F)(F)F)cc6[nH]ncc56)nccc4c23)C1 [Ex-76, (6S)-4-(8-(5-cyclopropyl-6-(trifluoromethyl)-1H-indazol-4-yl)-2-(((2R,7aS)-2-fluorotetrahydro-1H-pyrrolizin-7a(5H)-yl)methoxy)pyrido[4′,3′:4,5]thi-eno[2,3-d]pyrimidin-4-yl)-6-methyl-1,4-oxazepan-6-ol] | 8.47 nM | 55.8 nM | 5.46 nM | 20.4 nM | 7.22 nM | 28.1 nM | 24.1 nM | 18.5 nM |
| – | – | – | CN1CCC[C@H]1COc1nc(N2CCOC[C@@](C)(O)C2)c2c(n1)sc1c(-c3c(C4CC4)c(C(F)(F)F)cc4[nH]ncc34)nccc12 [Ex-79, (6S)-4-(8-(5-cyclopropyl-6-(trifluoromethyl)-1H-indazol-4-yl)-2-(((S)-1-methylpyrrolidin-2-yl)methoxy)pyrido[4′,3′:4.5]thi-eno[2,3-d]pyrimidin-4-yl)-6-methyl-1,4-oxazepan-6-ol] | 8.2 nM | 57.9 nM | 5.84 nM | 10.8 nM | 27.9 nM | 16.2 nM | 23.2 nM | 8.94 nM |
| 53.1 nM | 38 nM | 131 nM | Cc1cc2[nH]ncc2c(-c2nccc3c2sc2nc(OC[C@@]45CCCN4C[C@H](F)C5)nc(N4CCOC[C@@](C)(O)C4)c23)c1C1CC1 [Ex-141, (6S)-4-(8-(5-cyclo-propyl-6-methyl-1H-indazol-4-yl)-2-(((2R,7aS)-2-fluoro-tetrahydro-1H-pyr-rolizin-7a(5H)-yl)-methoxy)pyrido [4′,3′:4,5]thieno[2,3-d]pyrimidin-4-yl)-6-methyl-1,4-oxaze-pan-6-ol] | 18.1 nM | 87.7 nM | 7.5 nM | 16.5 nM | 14.4 nM | – | – | – |
| 120 nM | 82.1 nM | 96.7 nM | C=C(C)c1c(Cl)cc2[nH]ncc2c1-c1nccc2c1sc1nc(OC[C@@]34CCCN3C[C@H](F)C4)nc(N3CCOC[C@@](C)(O)C3)c12 [Ex-142, (6S)-4-(8-(6-chloro-5-(prop-1-en-2-yl)-1H-indazol-4-yl)-2-(((2R,7aS)-2-fluoro-tetrahydro-1H-pyr-rolizin-7a(5H)-yl)-methoxy)pyrido [4′,3′:4,5]thieno[2,3-d]pyrimidin-4-yl)-6-methyl-1,4-oxaze-pan-6-ol] | 49.2 nM | 34 nM | 19.2 nM | 29.3 nM | 31.1 nM | – | – | – |
| 53.2 nM | 41.7 nM | 73 nM | C[C@@]1(O)COCCN(c2nc(OC[C@@]34CCCN3C[C@H](F)C4)nc3sc4c(-c5c(C6CC6)c(Cl)cc6[nH]ncc56)nccc4c23)C1 [Ex-144, (6S)-4-(8-(6-chloro-5-cyclopropyl-1H-indazol-4-yl)-2-(((2R,7aS)-2-fluoro-tetrahydro-1H-pyr-rolizin-7a(5H)-yl)-methoxy)pyrido [4′,3′:4,5]thieno[2,3-d]pyrimidin-4-yl)-6-methyl-1,4-oxaze-pan-6-ol] | 14.6 nM | 46 nM | 6.2 nM | 14.3 nM | 10.7 nM | – | – | – |
| 155 nM | 119 nM | 120 nM | CC(C)c1c(Cl)cc2[nH]ncc2c1-c1nccc2c1sc1nc(OC[C@@]34CCCN3C[C@H](F)C4)nc(N3CCOC[C@@](C)(O)C3)c12 [Ex-145, (6S)-4-(8-(6-chloro-5-isopropyl-1H-ind-azol-4-yl)-2-(((2R, 7aS)-2-fluorotetra-hydro-1H-pyrrol-izin-7a(5H)-yl)meth-oxy)pyrido[4′,3′:4,5]thieno[2,3-d]pyr-imidin-4-yl)-6-meth-yl-1,4-oxazepan-6-ol] | 58.9 nM | 44.3 nM | 34.3 nM | 73.2 nM | 27.8 nM | – | – | – |
